Key:
Format in all cases: cell-based
[1] = Inhibition of human PSEN2/APH1B expressed in MEF cells with Psen1/2 double knockout/Aph1ABC triple knockout by ELISA
Homo sapiens [2] = species: Homo sapiens; assay: Selectivity ratio of IC50 for human PSEN2/APH1B expressed in MEF cells with Psen1/2 double knockout/Aph1ABC triple knockout to IC50 for human PSEN1/APH1B expressed in MEF cells with Psen1/2 double knockout/Aph1ABC triple knockout
[3] = Inhibition of human PSEN2/APH1A expressed in MEF cells with Psen1/2 double knockout/Aph1ABC triple knockout by ELISA
Homo sapiens [4] = species: Homo sapiens; assay: Selectivity ratio of IC50 for human PSEN2/APH1A expressed in MEF cells with Psen1/2 double knockout/Aph1ABC triple knockout to IC50 for human PSEN1/APH1B expressed in MEF cells with Psen1/2 double knockout/Aph1ABC triple knockout
[5] = Inhibition of human PSEN1/APH1B expressed in MEF cells with Psen1/2 double knockout/Aph1ABC triple knockout by ELISA
[6] = Inhibition of human PSEN1/APH1A expressed in MEF cells with Psen1/2 double knockout/Aph1ABC triple knockout by ELISA

Row | SMILES | IC50 [1] [µM] | Ratio IC50 (Homo sapiens [2]) | IC50 [3] [µM] | Ratio IC50 (Homo sapiens [4]) | IC50 [5] [µM] | IC50 [6] [µM]
1 | O=C1C[C@@H]2CC[C@H]1[C@@H](c1ccc(OC(F)(F)F)cc1)N2S(=O)(=O)c1ccc(Cl)cc1 (racemic) | > 10 | > 5 | > 10 | > 5 | 0.19 | 1.62
2 | O=S(=O)(c1ccc(Cl)cc1)N1[C@H]2CC[C@H]([C@H](O)C2)[C@H]1c1cc(F)ccc1F (racemic) | 7.76 | – | 7.76 | – | 0.427 | 0.851
3 | O=C1C[C@@H]2CC[C@H]1[C@@H](c1ccc(C(F)(F)F)nc1)N2S(=O)(=O)c1ccc(Cl)cc1 (racemic) | > 10 | > 11 | > 10 | > 11 | 0.39 | 0.69
4 | CCNC(=O)Nc1ccc([C@@H]2[C@@H]3CC[C@@H](CC3=O)N2S(=O)(=O)c2ccc(Cl)cc2)cc1 (racemic) | 8.5 | – | 7 | – | 0.389 | 3.8
5 | Cc1ccc(S(=O)(=O)N2[C@H]3CC[C@@H]([C@H]2c2ccc(C#N)nc2)[C@@H](O)C3)cc1 (racemic) | > 10 | – | > 10 | – | 0.158 | 1.1
6 | CC(=O)Nc1ccc([C@@H]2[C@@H]3CC[C@@H](CC3=O)N2S(=O)(=O)c2ccc(Cl)s2)cc1 (racemic) | 8 | – | 8.5 | – | 0.389 | 3.02
7 | O=C1C[C@@H]2CC[C@H]1[C@@H](c1ccc(C(F)(F)F)cc1)N2S(=O)(=O)c1ccc(F)cc1 (racemic) | > 10 | – | > 10 | – | 0.208 | 1
8 | CC(=O)Nc1ccc([C@@H]2[C@@H]3CC[C@@H](C[C@@H]3O)N2S(=O)(=O)c2ccc(Cl)cc2)cc1 (racemic) | > 1.3 | – | 1.2 | – | 0.0245 | 0.135
9 | O=S(=O)(c1ccc(Cl)cc1)N1[C@H]2CC[C@H]([C@H](O)C2)[C@H]1c1ccc(C(F)(F)F)cc1 [listing 1 of 2 here] | – | 15 | – | 15 | – | –
10 | O=S(=O)(c1ccc(Cl)cc1)N1[C@H]2CC[C@@H]([C@H]1c1ccccc1)[C@@H](O)C2 (racemic) | 0.602 | – | 0.426 | – | 0.014 | 0.102
11 | Cc1ccc(S(=O)(=O)N2[C@H]3CC[C@@H]([C@H]2c2ccc(C(F)(F)F)cc2)[C@@H](O)C3)cc1 (racemic) | > 8 | – | > 8 | – | 0.05 | 0.208
12 | COc1ccc([C@@H]2[C@@H]3CC[C@@H](C[C@@H]3O)N2S(=O)(=O)c2ccc(Cl)cc2)cn1 (racemic) | > 10 | – | > 10 | – | 0.062 | 0.38
13 | O=S(=O)(c1ccc(Cl)cc1)N1[C@H]2CC[C@@H]([C@H]1c1ccc(OC(F)(F)F)cc1)[C@@H](O)C2 (racemic) | > 10 | – | > 10 | – | 0.037 | 0.151
14 | CCOC(=O)Nc1ccc([C@@H]2[C@@H]3CC[C@@H](C[C@@H]3O)N2S(=O)(=O)c2ccc(Cl)cc2)cc1 (racemic) | 0.912 | – | 0.288 | – | 0.029 | 0.19
15 | CC(=O)Nc1ccc([C@@H]2[C@@H]3CC[C@@H](C[C@@H]3O)N2S(=O)(=O)c2ccc(Cl)s2)cc1 (racemic) | 0.851 | – | 0.513 | – | 0.026 | 0.0724
16 | N#Cc1ccc([C@@H]2[C@@H]3CC[C@@H](CC3=O)N2S(=O)(=O)c2ccc(Cl)cc2)c(F)c1 (racemic) | 7.58 | – | 3.39 | – | 0.131 | 0.691
17 | N#Cc1ccc([C@@H]2[C@@H]3CC[C@@H](C[C@@H]3O)N2S(=O)(=O)c2ccc(Cl)cc2)cc1 (racemic) | 0.631 | – | 0.758 | – | 0.012 | 0.064
18 | O=C1C[C@@H]2CC[C@H]1[C@@H](c1ccc(Cl)cc1)N2S(=O)(=O)c1ccc(Cl)s1 (racemic) | > 10 | – | > 10 | – | 0.281 | 2.24
19 | O=S(=O)(N[C@H]1CC[C@@](c2cc(F)ccc2F)(S(=O)(=O)c2ccc(Cl)cc2)CC1)C(F)(F)F | 0.139 | > 300 | 0.153 | > 300 | 0.00042 | 0.0014
20 | O=S(=O)(c1ccc(Cl)cc1)N1[C@H]2CC[C@H]([C@H](O)C2)[C@H]1c1ccccc1Cl (racemic) | > 10 | – | > 10 | – | 0.426 | 2.24
21 | COCC(=O)Nc1ccc([C@@H]2[C@@H]3CC[C@@H](CC3=O)N2S(=O)(=O)c2ccc(Cl)cc2)cc1 (racemic) | > 10 | – | > 10 | – | 1.45 | > 10

Row | SMILES | IC50 [1] [µM] | Ratio IC50 (Homo sapiens [2]) | IC50 [3] [µM] | Ratio IC50 (Homo sapiens [4]) | IC50 [5] [µM] | IC50 [6] [µM]
22 | N#Cc1ccc([C@@H]2[C@@H]3CC[C@@H](C[C@H]3O)N2S(=O)(=O)c2ccc(Cl)cc2)cn1 | > 10 | – | > 10 | – | > 10 | > 10
23 | O=S(=O)(c1ccc(Cl)cc1)N1[C@H]2CC[C@@H]([C@H]1c1ccc(F)c(F)c1)[C@@H](O)C2 (racemic) | > 10 | – | > 10 | – | 0.058 | 0.295
24 | N#Cc1ccc([C@@H]2[C@@H]3CC[C@@H](CC3=O)N2S(=O)(=O)c2ccc(Cl)cc2)cc1 (racemic) | > 8 | – | > 8 | – | 0.234 | 0.891
25 | O=C1C[C@@H]2CC[C@H]1[C@@H](c1cc(F)ccc1F)N2S(=O)(=O)c1ccc(Cl)cc1 (racemic) | > 10 | 25 | > 10 | 25 | 0.426 | 1.02
26 | N#Cc1ccc([C@@H]2[C@@H]3CC[C@@H](C[C@@H]3O)N2S(=O)(=O)c2ccc(Cl)s2)cn1 (racemic) | 3.39 | – | 3.02 | – | 0.039 | 0.147
27 | COCC(=O)Nc1ccc([C@@H]2[C@@H]3CC[C@@H](C[C@@H]3O)N2S(=O)(=O)c2ccc(Cl)cc2)cc1 (racemic) | 2 | – | 1.41 | – | 0.052 | 0.208
28 | O=S(=O)(c1ccc(Cl)cc1)N1[C@H]2CC[C@H]([C@H](O)C2)[C@H]1c1ccc(C(F)(F)F)nc1 (racemic) | > 10 | – | > 10 | – | 0.776 | 6.46
29 | O=C1C[C@@H]2CC[C@H]1[C@@H](c1ccc(C(F)(F)F)nc1)N2S(=O)(=O)c1ccc(Cl)s1 (racemic) | > 10 | – | > 10 | – | 0.588 | 1.91
30 | O=S(=O)(c1ccc(Cl)cc1)N1[C@H]2CC[C@H]([C@H](O)C2)[C@H]1c1ccc(C(F)(F)F)cc1 [listing 2 of 2 here] | – | – | – | – | 0.11 | 0.759
31 | O=C1C[C@@H]2CC[C@H]1[C@@H](c1ccccc1Cl)N2S(=O)(=O)c1ccc(Cl)cc1 (racemic) | > 10 | – | > 10 | – | 0.389 | 2.63
32 | O=S(=O)(c1ccc(Cl)cc1)N1[C@H]2CC[C@@H]([C@H]1c1ccc(C(F)(F)F)nc1)[C@@H](O)C2 (racemic) | > 2 | – | > 2 | – | 0.038 | 0.263
33 | O=S(=O)(c1ccc(Cl)cc1)N1[C@H]2CC[C@H]([C@H](O)C2)[C@H]1c1ccc(C(F)(F)F)cc1 (racemic) | > 10 | – | > 10 | – | 0.109 | 0.758
34 | O=S(=O)(c1ccc(Cl)s1)N1[C@H]2CC[C@@H]([C@H]1c1ccc(F)c(F)c1)[C@@H](O)C2 (racemic) | > 10 | – | > 10 | – | 0.074 | 0.398
35 | O=C1C[C@@H]2CC[C@H]1[C@@H](c1ccc(F)c(F)c1)N2S(=O)(=O)c1ccc(Cl)s1 (racemic) | > 10 | – | > 10 | – | 1.95 | > 10
36 | O=S(=O)(c1ccc(Cl)cc1)N1[C@@H]2CCC[C@H]1c1cn[nH]c1C2 | 0.38 | > 260 | 0.272 | > 260 | – | 0.0472
37 | O=S(=O)(c1ccc(Cl)s1)N1[C@H]2CC[C@@H]([C@H]1c1ccc(Cl)cc1)[C@@H](O)C2 (racemic) | > 2 | – | > 2 | – | 0.058 | 0.199
38 | CCNC(=O)Nc1ccc([C@@H]2[C@@H]3CC[C@@H](C[C@@H]3O)N2S(=O)(=O)c2ccc(Cl)cc2)cc1 (racemic) | 4.79 | – | 2.34 | – | 0.0794 | 0.446
39 | CC(=O)Nc1ccc([C@@H]2[C@@H]3CC[C@@H](CC3=O)N2S(=O)(=O)c2ccc(Cl)cc2)cc1 (racemic) | > 10 | – | > 10 | – | 0.709 | 6.31
40 | O=C1C[C@@H]2CC[C@H]1[C@@H](c1ccc(C(F)(F)F)cc1)N2S(=O)(=O)c1ccccc1Cl (racemic) | > 10 | – | > 10 | – | 5.89 | > 10
41 | O=S(=O)(c1ccc(Cl)cc1)N1[C@H]2CC[C@@H]([C@H]1c1ccc(Cl)cc1)[C@@H](O)C2 (racemic) | > 2 | – | > 2 | – | 0.046 | 0.147
